Reference: ChEMBL document CHEMBL1201862, “PubChem BioAssay data set” (2004)
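In this assay, cells in 96-well plates receive the compound at five concentrations for 48 hours. Endpoints are linearly interpolated between the surrounding concentrations. GI50 = concentration required for 50% inhibition of growth.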 Active and inactive are the calls of the source. No stated cut-off is given here; in the data, active = GI50 up to about 1.1 µM and inactive = higher.

Legend:
Assay in all cases: inhibition of tumour cell growth, NCI panel, 48 h
[1] = system: NCI/ADR-RES
[2] = system: DU-145
[3] = system: OVCAR-5
[4] = system: CCRF-CEM
[5] = system: A498
[6] = system: RPMI-8226
[7] = system: UO-31
[8] = system: HCT-116
[9] = system: MOLT-4
[10] = system: MDA-MB-435
[11] = system: RXF 393
[12] = system: MDA-N
[13] = system: K562
[14] = system: SK-OV-3
[15] = system: SF-268
[16] = system: SNB-75
[17] = system: T47D
[18] = system: M14
[19] = system: SR
[20] = system: MDA-MB-231
[21] = system: CAKI-1
[22] = system: SK-MEL-5
[23] = system: SF-539
[24] = system: NCI-H460
[25] = system: OVCAR-4
[26] = system: ACHN
[27] = system: U-251
[28] = system: UACC-62
[29] = system: KM12
[30] = system: NCI-H226
[31] = system: OVCAR-3
[32] = system: HT-29
[33] = system: 786-0
[34] = system: OVCAR-8
[35] = system: COLO 205
[36] = system: Hs-578T
[37] = system: MCF7
[38] = system: SK-MEL-2
[39] = system: HCC 2998
[40] = system: SN12C
[41] = system: SK-MEL-28
[42] = system: LOX IMVI
[43] = system: A549
[44] = system: TK-10
[45] = system: PC-3
[46] = system: NCI-H23
[47] = system: HOP-62
[48] = system: SW-620
[49] = system: SNB-19
[50] = system: HOP-92
[51] = system: UACC-257
[52] = system: SF-295
[53] = system: HL-60
[54] = system: BT-549
[55] = system: NCI-H522
[56] = system: Malme-3M
[57] = system: EKVX
[58] = system: IGROV-1
[59] = system: HCT-15

Measured: GI50

NC(=O)C(=CNC(=S)Nc1cccc(C(F)(F)F)c1)C(N)=O
inactive: [1] > 100000 nM | [2] > 100000 nM | [3] > 100000 nM | [4] > 100000 nM | [5] > 100000 nM | [6] > 100000 nM | [7] > 100000 nM | [8] > 100000 nM | [9] > 100000 nM | [10] > 100000 nM | [11] > 100000 nM | [12] > 100000 nM | [13] > 100000 nM | [14] > 100000 nM | [15] > 100000 nM | [16] 51900 nM | [17] > 100000 nM | [18] > 100000 nM | [19] > 100000 nM | [20] > 100000 nM | [21] 28400 nM | [22] > 100000 nM | [23] > 100000 nM | [24] > 100000 nM | [25] > 100000 nM | [26] > 100000 nM | [27] > 100000 nM | [28] > 100000 nM | [29] > 100000 nM | [30] > 100000 nM | [31] > 100000 nM | [32] > 100000 nM | [33] > 100000 nM | [34] > 100000 nM | [35] > 100000 nM | [36] > 100000 nM | [37] > 100000 nM | [38] > 100000 nM | [39] > 100000 nM | [40] > 100000 nM | [41] > 100000 nM | [42] > 100000 nM | [43] > 100000 nM | [44] > 100000 nM | [45] > 100000 nM | [46] > 100000 nM | [47] > 100000 nM | [48] > 100000 nM | [49] > 100000 nM | [50] > 100000 nM | [51] > 100000 nM | [52] > 100000 nM | [53] > 100000 nM

NC(=O)c1cn(C2OC(CO)C(O)C2O)c2nc[n+]([O-])c(N)c12 (stereo not drawn)
inactive: [55] 1360 nM | [57] 1210 nM
active: [1] 107 nM | [2] 104 nM | [3] 161 nM | [4] 100 nM | [6] 266 nM | [7] 382 nM | [54] 592 nM | [8] 20.6 nM | [9] 104 nM | [10] 167 nM | [11] 564 nM | [13] 340 nM | [14] 90.6 nM | [15] 230 nM | [16] 130 nM | [17] 103 nM | [18] 111 nM | [19] 50.9 nM | [56] 39.8 nM | [20] 342 nM | [21] 49.7 nM | [22] 33.3 nM | [23] 321 nM | [24] 446 nM | [25] 201 nM | [26] 35.1 nM | [27] 285 nM | [28] 120 nM | [29] 153 nM | [30] 211 nM | [31] 125 nM | [32] 143 nM | [33] 126 nM | [34] 94 nM | [35] 201 nM | [36] 951 nM | [37] 200 nM | [38] 157 nM | [40] 91.2 nM | [58] 1050 nM | [41] 341 nM | [42] 104 nM | [43] 285 nM | [44] 32.4 nM | [45] 178 nM | [46] 121 nM | [47] 133 nM | [48] 40.9 nM | [49] 542 nM | [50] 670 nM | [51] 244 nM | [52] 262 nM
73.5 nM: [59]
